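A five-concentration, 48-hour dose response in 96-well plates underlies each endpoint, interpolated linearly between surrounding concentrations. Abbreviation: GI50, concentration required for 50% inhibition of growth. The concentration for full growth arrest is given as TGI.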

Some test systems named below: EKVX NSCLC; HOP-92 NSCLC; SNB-19 CNS; A549 NSCLC; HOP-62 NSCLC; A498 renal; IGROV1 ovarian; NCI-H522 lung; CCRF-CEM leukemia; MDA-MB-231 breast.
Common to all, as to assay: growth of human tumour cells (NCI), 48 h

With `Cc1cccc(C)c1NC(=O)CCC(=O)NNC(=O)c1cc(O)c2ccccc2c1`, the TGI in the assay with EKVX NSCLC was above 100 µM; in the assay with HOP-92 NSCLC, above 100 µM; in the assay with SNB-19 CNS, above 100 µM; in the assay with A549 NSCLC, above 100 µM; in the assay on HOP-62 NSCLC, above 100 µM; in the assay with A498 renal, 3.78 µM. Also, the figures for the TGI in the assay with IGROV1 ovarian, in the assay with NCI-H522 lung and with CCRF-CEM leukemia were above 100 µM, 82.3 µM and 72.5 µM, respectively.

As for `COC(=O)OCC1OC(N2C(=O)NC(=O)C(I)C2N=[N+]=[N-])CC1OC(=O)OC` (stereo unspecified), the TGI with HOP-92 NSCLC, in the assay with SNB-19 CNS, with A549 NSCLC, with HOP-62 NSCLC, in the assay on IGROV1 ovarian and in the assay on NCI-H522 lung was above 100 µM throughout. In addition, the TGI in the assay with CCRF-CEM leukemia was above 100 µM.

Regarding `COc1cc(-c2c3c(cn2S(=O)(=O)c2ccccc2)-c2nc(N)sc2CC3)cc(OC)c1OC`, the GI50 with HOP-92 NSCLC was 0.407 µM; in the assay with SNB-19 CNS it was 11 µM; with MDA-MB-231 breast, 1.1 µM; in the assay on A549 NSCLC, 0.58 µM; in the assay on HOP-62 NSCLC, 2.05 µM; in the assay with A498 renal, 0.56 µM. Further, the GI50 in the assay with IGROV1 ovarian is 2.23 µM; in the assay on NCI-H522 lung it was 0.349 µM. Further, the TGI in the assay with HOP-92 NSCLC is 8.34 µM; in the assay on SNB-19 CNS, above 100 µM; in the assay on MDA-MB-231 breast, 79.1 µM; with A549 NSCLC, 17.1 µM; in the assay with HOP-62 NSCLC, 63.2 µM; in the assay on A498 renal it was 22.3 µM. For the same compound, the figures for the TGI with IGROV1 ovarian and in the assay on NCI-H522 lung were 75.1 µM and 6.83 µM, respectively.

For `[Cu+2].[Cu+2].[O-]c1ccccc1C=Nc1ccccc1[O-].[O-]c1ccccc1C=Nc1ccccc1[O-]`, the GI50 is 11.8 µM with EKVX NSCLC; 5.32 µM with SNB-19 CNS; 7.56 µM in the assay with A549 NSCLC; 21.9 µM with HOP-62 NSCLC; 14.4 µM with A498 renal; 3.33 µM with IGROV1 ovarian. Moreover, the values for the GI50 in the assay on NCI-H522 lung and with CCRF-CEM leukemia were 2.39 µM and 3.33 µM, respectively. The TGI in the assay on EKVX NSCLC turned out to be 25.9 µM; with SNB-19 CNS it was 17.8 µM; in the assay with A549 NSCLC, 27.8 µM; with HOP-62 NSCLC, 36.6 µM; in the assay with A498 renal, 28.1 µM; in the assay on IGROV1 ovarian, 12.2 µM. For the same compound, the TGI was 6.24 µM in the assay on NCI-H522 lung and 21.3 µM with CCRF-CEM leukemia.

Consider `CN(C)CCC1(C2=CCCC2)CC/C(=C\c2ccc3c(c2)OCO3)C1=O` (stereo unspecified), for which the TGI in the assay on EKVX NSCLC amounted to 29.3 µM; in the assay on HOP-92 NSCLC, 24.4 µM; with SNB-19 CNS it was 43.5 µM; in the assay with A549 NSCLC, 31.8 µM; with A498 renal it was 24.7 µM; in the assay on CCRF-CEM leukemia it was 41.4 µM.

As for `CCc1nc2c(O)ccc(O)c2nc1C`, the TGI turned out to be 31.1 µM in the assay with EKVX NSCLC; 13.7 µM in the assay on HOP-92 NSCLC; 33.7 µM in the assay with SNB-19 CNS; 44.5 µM with A549 NSCLC; 32.3 µM in the assay with HOP-62 NSCLC; 35.2 µM with A498 renal. In addition, the TGI with IGROV1 ovarian was 33.1 µM; in the assay on NCI-H522 lung, 6.47 µM; in the assay on CCRF-CEM leukemia it was above 22.3 µM.

Turning to `Cc1c(/C=C2\CC/C(=C\c3[nH]c(C(=O)OC(C)(C)C)c(C)c3C)C2=O)[nH]c(C(=O)OC(C)(C)C)c1C`, the TGI in the assay on EKVX NSCLC, in the assay with HOP-92 NSCLC, in the assay with SNB-19 CNS, in the assay on A549 NSCLC, in the assay with HOP-62 NSCLC and in the assay on A498 renal was above 100 µM in each case. Also, the TGI with IGROV1 ovarian, in the assay with NCI-H522 lung and with CCRF-CEM leukemia was above 100 µM throughout.

On to `O=C(/C=C/c1ccc(OCCCCCCCCCCOc2ccc(/C=C/C(=O)c3ccc(Cl)cc3)cc2)cc1)c1ccc(Cl)cc1`, for which the TGI in the assay with EKVX NSCLC, with HOP-92 NSCLC, with SNB-19 CNS, with A549 NSCLC, in the assay on HOP-62 NSCLC and in the assay with A498 renal was above 100 µM in each case. Further, the TGI in the assay with IGROV1 ovarian, with NCI-H522 lung and in the assay on CCRF-CEM leukemia was above 100 µM in each case.

As to `COc1cc2c(-c3nc4cc(Cl)c(F)cc4s3)cc(=O)oc2c(C)c1OC`, the GI50 in the assay on HOP-92 NSCLC was 0.498 µM; in the assay on HOP-62 NSCLC, 1.67 µM; with A498 renal, 1.5 µM; with IGROV1 ovarian, 0.207 µM; in the assay on NCI-H522 lung it was 0.176 µM. For the same compound, the TGI with HOP-92 NSCLC was found to be 2.16 µM; with HOP-62 NSCLC, 3.16 µM; in the assay with A498 renal, 2.87 µM; in the assay on IGROV1 ovarian it was 0.662 µM; in the assay with NCI-H522 lung, 0.354 µM.

Turning to `CN(C)CCNC(=O)c1ccc2ccc3cccnc3c2n1`, the TGI with EKVX NSCLC was 48.3 µM; in the assay on HOP-92 NSCLC, 65.2 µM; in the assay on SNB-19 CNS it was above 93 µM; with A549 NSCLC it was above 52.9 µM; in the assay on HOP-62 NSCLC it was 63.1 µM; in the assay on A498 renal it was above 57.4 µM. In addition, the TGI is above 100 µM in the assay on IGROV1 ovarian, 25.5 µM in the assay with NCI-H522 lung and above 100 µM in the assay on CCRF-CEM leukemia.

In the case of `CC(=O)[CH-]C(=O)c1ccccc1.CC(=O)[CH-]C(=O)c1ccccc1.[Nd+3].[OH-].[OH3+]`, the GI50 in the assay with HOP-92 NSCLC, in the assay with SNB-19 CNS, in the assay on A549 NSCLC, in the assay on HOP-62 NSCLC, in the assay with A498 renal and in the assay with IGROV1 ovarian was above 100 µM each time. Moreover, the GI50 in the assay on NCI-H522 lung and with CCRF-CEM leukemia was above 100 µM each time. Also, the TGI in the assay with HOP-92 NSCLC, with SNB-19 CNS, with A549 NSCLC, in the assay with HOP-62 NSCLC, in the assay with A498 renal and in the assay with IGROV1 ovarian was above 100 µM each time. Besides, the TGI with NCI-H522 lung and in the assay on CCRF-CEM leukemia was above 100 µM each time.

On to `CS(=O)(=O)C1S(=O)(=O)OCCOS1(=O)=O`, for which the TGI in the assay with EKVX NSCLC, in the assay with HOP-92 NSCLC, in the assay with SNB-19 CNS, with A549 NSCLC, with HOP-62 NSCLC and in the assay on A498 renal was above 100 µM in each case. Besides, the TGI in the assay on IGROV1 ovarian and in the assay on NCI-H522 lung was above 100 µM in each case.

Consider `COc1cc2c(cc1OC)C1c3ccccc3C(C#N)(C2)N(C(=O)c2ccccc2)C1O` (stereo unspecified), for which the TGI is above 100 µM in the assay on EKVX NSCLC; above 100 µM with HOP-92 NSCLC; above 100 µM with SNB-19 CNS; above 100 µM in the assay with HOP-62 NSCLC; above 100 µM in the assay with IGROV1 ovarian; 56.4 µM with NCI-H522 lung. In addition, the TGI in the assay with CCRF-CEM leukemia is above 100 µM.

Values taken from PubChem BioAssay (NCI).
